Patent publication US11384381B2, “Reaction accelerating agent” (Kikkoman Corporation, priority 2016, dated 2022)

Experiments:
[1] = tested on: cholesterol oxidase (CHO-CE); assay: Cholesterol detection reaction completed with excess cholesterol oxidase (Example 12); format: biochemical; conditions: 0.04% (w/v) compound, 11.6 U/ml CHO-CE (excess), 32 μM cholesterol, pH 7.0, 37° C.; for ΔA9 min: change in A694-A751 9 minutes after mixing; for ΔA10 min: change in A694-A751 10 minutes after mixing, defined as ΔA100%
Procedure: In this Example the amount of change in absorbance is determined when the detection reaction for the substrate cholesterol was completed using an excess amount of cholesterol oxidase (CHO-CE), which is an oxidase.
A reagent for cholesterol measurement having the following composition was prepared, and the measurement of cholesterol using cholesterol oxidase was carried out using Bio Majesty JCA-BM 1650 (manufactured by JEOL Ltd.).
32 μM cholesterol (manufactured by Wako Pure Chemical Industries, Ltd.)
5.0% (v/v) Triton X-100 (manufactured by Wako Pure Chemical Industries, Ltd.)
4.0% (w/v) sodium cholate (manufactured by Wako Pure Chemical Industries, Ltd.)
30 mM MOPS-NaOH buffer solution, pH 7.0
(§1) 10 U/ml peroxidase PEO-301 (Toyobo Co., Ltd.)
(§2) 0.023 mM 10-(carboxymethylaminocarbonyl)-3,7-bis(dimethylamino)phenothiazine sodium (DA-67, manufactured by Wako Pure Chemical Industries, Ltd.)
(§3) 0.04% (w/v) of the compound of Comparative Example 2, any one compound of the present invention, or compound-free (Comparative Example 1) ion-exchange water as shown in Table 1
10 mM MOPS-NaOH buffer solution, pH 7.0
11.6 U/ml CHO-CE (manufactured by Kikkoman Biochemifa Company)
8 μl of the sample was added to 96 μl of the first reagent-E, and the mixture was incubated at 37° C. for 5 minutes. Then, 24 μl of the second reagent-I was added thereto, and the quantitative reaction of hydrogen peroxide resulting from the oxidation of cholesterol was allowed to progress at 37° C. for 5 minutes. The absorbance (A694 and A751) of the reaction solution for light at wavelengths of 694 nm and 751 nm was measured over time for 10 minutes after the mixing of the sample with the first reagent-E to determine the value of subtraction of A751 from A694, i.e., the value A694/751. Subsequently, ΔA was calculated by subtracting, from A694/751, the value of (104/128) times A694/751 4.8 minutes after the mixing of the sample with the first reagent-E. Incidentally, 4.8 minutes after the mixing of the sample with the first reagent-E represents the time immediately before the addition of the second reagent-I. ΔA 9 minutes and 10 minutes after the mixing of the diluted sample with the first reagent-E (ΔA9min and ΔA10min) are shown in Table 9.
(§4) In other words, it can be recognized that the quantitative reaction of cholesterol, i.e., the quantitative reaction of hydrogen peroxide resulting from the oxidation of cholesterol, was completed in 10 minutes after the mixing of the diluted sample with the first reagent-E. Accordingly, in Examples 12 and 13, ΔA10min in each Comparative Example or the present invention was defined as ΔA when 100% of the quantitative reaction of cholesterol progressed under each condition (ΔA100%).

[2] = tested on: sarcosine oxidase (SOD-TE); assay: Sarcosine detection reaction completed with excess sarcosine oxidase (Example 10); format: biochemical; conditions: 0.04% (w/v) compound, 123 U/ml SOD-TE (excess), 32 μM sarcosine, pH 8.0, 37° C.; for ΔA9 min: change in A694-A751 9 minutes after mixing; for ΔA10 min: change in A694-A751 10 minutes after mixing, defined as ΔA100%
Procedure: In this Example, the amount of change in absorbance is determined when the detection reaction of the substrate sarcosine (N-methylglycine) was completed using an excess amount of sarcosine oxidase (SOD-TE), which is an oxidase.
A reagent for sarcosine measurement having the following composition was prepared, and the measurement of sarcosine using sarcosine oxidase was carried out using Bio Majesty JCA-BM 1650 (manufactured by JEOL Ltd.).
32 μM sarcosine (manufactured by Wako Pure Chemical Industries, Ltd.)
30 mM MOPS-NaOH buffer solution, pH 8.0
0.2% (v/v) NP-10 (manufactured by HELM)
as §1, §2, §3
10 mM MOPS-NaOH buffer solution, pH 8.0
123 U/ml SOD-TE (manufactured by Kikkoman Biochemifa Company)
8 μl of the sample was added to 96 μl of the first reagent-D, and the mixture was incubated at 37° C. for 5 minutes. Then, 24 μl of the second reagent-G was added thereto, and the quantitative reaction of hydrogen peroxide resulting from the oxidation of sarcosine was allowed to progress at 37° C. for 5 minutes. The absorbance (A694 and A751) of the reaction solution for light at wavelengths of 694 nm and 751 nm was measured over time for 10 minutes after the mixing of the sample with the first reagent-D to determine the value of subtraction of A751 from A694, i.e., the value A694/751. Subsequently, ΔA was calculated by subtracting, from A694/751, the value of (104/128) times […] 4.8 minutes after the mixing of the sample with the first reagent-D. Incidentally, 4.8 minutes after the mixing of the sample with the first reagent-D represents the time immediately before the addition of the second reagent-G. ΔA 9 minutes and 10 minutes after the mixing of the diluted sample with the first reagent-D (ΔA9min and ΔA10min) are shown in Table 7.
as §4, with “sarcosine,” for “cholesterol,”, “reagent-D.” for “reagent-E.”, “10” for “12”, “11,” for “13,”, “sarcosine” for “cholesterol”

Compound | ΔA9 min [1] | ΔA10 min [1] | ΔA9 min [2] | ΔA10 min [2]
Cc1nn(-c2cc(S(=O)(=O)[O-])ccc2Cl)c(O)c1N=Nc1ccccc1.[Na+] [Acid Yellow 34] | 0.033 | 0.033 |  | 
COc1cc(N=Nc2ccc(N)cc2)c(C)cc1N [Disperse Diazo Black 3BF] | 0.028 | 0.032 | 0.156 | 0.156
O=C(O)c1cc(N=Nc2ccc3cc(S(=O)(=O)O)ccc3c2)ccc1O.[Na] [Chrome Yellow] | 0.071 | 0.072 | 0.186 | 0.186
COc1cc(N=Nc2cccc(S(=O)(=O)[O-])c2)ccc1NC(=O)Nc1ccc(N=Nc2ccc(O)c(C(=O)[O-])c2)cc1.[Na+].[Na+] [Direct Yellow 44] |  |  | 0.315 | 0.315
O=S(=O)([O-])c1cccc(N=Nc2ccc(Nc3ccccc3)cc2)c1.[Na+] [Acid Yellow 36] | 0.033 | 0.033 |  | 
Acid Red 151 | 0.036 | 0.036 | 0.212 | 0.212
Xylene Fast Yellow 2G |  |  | 0.158 | 0.158
O=C([O-])c1cc(N=Nc2ccc([N+](=O)[O-])cc2)ccc1O.[Na+] [Mordant Orange 1] | 0.041 | 0.041 | 0.327 | 0.328
O=C([O-])c1cc(N=Nc2cccc([N+](=O)[O-])c2)ccc1O.[Na+] [Alizarin Yellow GG] | 0.039 | 0.039 | 0.197 | 0.197
